# Measurements taken from patent US20230263897A1, “CONJUGATE OF GALNAC AND SAPONIN, […] COMPOSITION COMPRISING SAID CONJUGATE AND A GALNAC-OLIGO[…]” (SAPREME TECHNOLOGIES B.V., priority 2020, published 2023).
# Read-outs that look alike come from different tables or passages of the source. [BNANC] = BNA^NC bridged nucleic acid sugar; d = 2'-deoxy (DNA)
# What was measured:
# ApoB [1] = experiment: ApoB gene silencing (qPCR) in HepG2 cells; assay type: cell-based, human
# Description: (§1) ApoB gene silencing in HepG2 (ASGPR1*) cells or Huh7 (ASPGR1^+/−) was determined. […] Thus, a conjugate comprising a labile bond between any two molecules forming the conjugate or comprised by the conjugate, will be cleaved at a position in the labile linker, therewith dissociating the two linked or bound molecules. An example is the cleavage of a hydrazone bond under acidic conditions as apparent in the endosome and lysosome of mammalian cells such as human cells.
# (§2) ApoB gene silencing HepG2 (ASGPR1*) cells and Huh7 (ASPGR1^+/−) cells was determined.
# (§3) RNA from cells was isolated and analysed according to standard protocols (Biorad). qPCR primers that were used are indicated in Table A2.
# ApoB [2] = experiment: ApoB gene silencing (qPCR) in Huh7 cells; assay type: cell-based, human; settings: for IC50: + 4000 nM trivalent-GalNAc-L-SO1861
# Description: as §1, §2, §3
# HSP27 [3] = experiment: HSP27 gene silencing (qPCR) in Huh7 cells; assay type: cell-based, human; settings: + 4000 nM SO1861-EMCH
# Description: (§4) HSP27 gene silencing in HepG2 and Huh7 cells was determined.
# as §3
# HSP27 [4] = experiment: HSP27 gene silencing (qPCR) in HepG2 cells; assay type: cell-based, human; settings: + 4000 nM SO1861-EMCH
# Description: as §4, §3
# [5] = test system: primary human hepatocytes; experiment: Cell viability assay (CTG) on primary human hepatocytes; settings: for IC50 / effect on cell viability: primary human hepatocytes
# Description: The ‘trivalent-GalNAc’ as depicted in FIGS. 1 and 8 is a typical (GalNAc)3Tris conjugate suitable for coupling to an effector molecule or to saponin. […] Primary hepatocytes express receptor at high density—allow for targeting.
# Primary hepatocytes which highly express ASGPR1 (ASGPR1*) and hepatocyte cells of cell-line Huh7 (ASGPR1^+/−) were treated with a concentration range of trivalent-GalNAc-SO1861 (TrivalentGalNAc-SPT001), either or not in the presence of 10 μM CD71-saporin (monoclonal antibody OKT-9 targeting CD71 conjugated to the protein toxin saporin; FIG. 30D).
# After treatment the cells were incubated for 72 hr at 37° C. before the cell viability was determined by a CTG-assay, performed according to the manufacturer's instruction (CellTiter-Glo® 2.0 Cell Viability Assay, Promega). Briefly, the cell plate was first equilibarated to RT for 30 minutes. Next, to each well containing 120 μL treatment media 120 μL CTG solution was added. The plate briefly mixed (10 sec, 600 rpm) and incubated for approximately 10 minutes in the dark at RT. Subsequently, the luminescence signal was measured on a Spectramax ID5 plate reader (Molecular Devices). For quantification, the background signal of ‘medium only’ wells was subtracted from all other wells before the cell viability percentage of treated/untreated cells was calculated by dividing the background corrected signal of treated wells over the background corrected signal of the untreated wells (×100).
# Cryopreserved primary human hepatocytes (Cytes Biotechnologies S.L., Spain) were thawed in hepatocyte thawing media (Cytes Biotechnologies S.L., Spain). Cells were re-suspended in hepatocyte plating media (Cytes Biotechnologies S.L., Spain). Cells were seeded onto collagen-I coated plates at a density of 215.600 cells/well or 66.600 cells/well for the 48 or 96-well plates (Greiner BioOne). Cells were pre-cultured for 4-6 hrs at 37° C. allowing for cell attachment to cell culture plates before the start of treatment. Plating medium was replaced by 315 μl or 108 μl maintenance media (Cytes Biotechnologies S.L., Spain), after which conjugates were added from a 10× concentrated stock solution in PBS. Plates were incubated for 72 hr at 37° C. being harvested for gene expression and cell viability analysis.
# ApoB RNA = ApoB RNA expression analysis on primary human hepatocytes; assay type: cell-based
# Description: RNA from cells was isolated using TRI Reagent® Solution (Thermo Scientific) according to the manufacturer's instruction. Conversion into cDNA was performed using iScript™ cDNA Synthesis Kit (BioRad) using standard protocols. ApoB expression levels and levels of specific hepatocyte housekeeping genes were determined using quantitative real-time PCR assays (qRT-PCR) using iTaq™ Universal SYBR® Green Supermix (BioRad) and the Light Cycler 480 (Roche Diagnostics, Rotkreuz, Switzerland) with specific DNA primers, listed in Table A4. Analysis was done by the ΔCt method to determine ApoB expression relative to 2 hepatocyte-specific housekeeping control mRNAs. Each analysis reaction was performed in triplicate.
# ApoB protein = ApoB protein expression by Huh7 cells; assay type: cell-based, human
# [6] = + 4000 nM trivalent-GalNAc-L-SO1861
molecule,measurement,setting,value
"trivalent-GalNAc-S-ApoBBNA: ApoBBNA (SEQ ID NO: 2) conjugated to trivalent-GalNAc, stable conjugation, FIG. 7 (antisense GCCTCAGTCTGCTTCGCACC; sugars from the 5' end [BNANC]5 d10 [BNANC]5, all phosphorothioate, methylation of C not given here; further chemistry not fully specified)",IC50,ApoB [1]; + 4000 nM SO1861-EMCH,10 nM
same,IC50,ApoB [1]; [6],50 nM
same,IC50,ApoB [2],700 nM
"trivalent-GalNAc-L-HSP27BNA: HSP27BNA (SEQ ID NO: 1) conjugated to trivalent-GalNAc, labile conjugation, FIG. 6 (antisense GGCACAGCCAGTGGCG; sugars from the 5' end [BNANC]3 d10 [BNANC]3, all phosphorothioate, methylation of C not given here; further chemistry not fully specified)",IC50,HSP27 [3],3 nM
same,IC50,HSP27 [4],0.1 nM
"CC(=O)OC1C(C)OC(OC2C(C)OC(OC(=O)[C@]34CCC(C)(C)CC3C3=CCC5[C@@]6(C)CC[C@H](OC7OC(C(=O)O)C(O)C(OC8OCC(O)C(O)C8O)C7OC7OC(CO)C(O)C(O)C7O)[C@@](C)(C=O)C6CC[C@@]5(C)[C@]3(C)C[C@H]4O)C(OC3OC(C)C(OC4OCC(O)C(OC5OC(CO)C(O)C(O)C5O)C4O)C(O)C3O)C2O)C(O)C1OC1OCC(O)C(O)C1O (stereo partly shown) [SO1861, reference compound]",IC50,"[5]; read-out: SO1861 IC50 for CD71-saporin mediated cell killing, + 10 μM CD71-saporin (non-effective concentration)",200 nM
"trivalent-GalNAc-L-ApoBBNA: ApoBBNA (SEQ ID NO: 2) conjugated to trivalent-GalNAc, labile conjugation, FIG. 6 (antisense GCCTCAGTCTGCTTCGCACC; BNA oligo, pattern not given here, trivalent GalNAc via labile linker, position not given here)",effect on cell viability,"[5]; + 250 nM (GalNAc)3-SO1861, FIG. 24 B",without affecting cell viability significantly
same,effect on cell viability,"[5]; alone, FIG. 24 B",no effects on cell viability were observed
same,IC50,"[5]; read-out: IC50 decreased cell viability, + 2000 nM SO1861-EMCH, FIG. 24 B",600 nM
same,IC50,ApoB RNA; + 250 nM (GalNAc)3-SO1861,15 nM
same,IC50,ApoB RNA; + 2000 nM SO1861-EMCH,8 nM
same,IC50,ApoB RNA; alone,> 1000 nM
same,IC50,ApoB [1]; + 4000 nM SO1861-EMCH,10 nM
same,IC50,ApoB [1]; [6],50 nM
same,IC50,ApoB [2],700 nM
CC(=O)OC1C(C)OC(OC2C(C)OC(OC(=O)[C@]34CCC(C)(C)CC3C3=CCC5[C@@]6(C)CC[C@H](OC7OC(C(=O)O)C(O)C(OC8OCC(O)C(O)C8O)C7OC7OC(CO)C(O)C(O)C7O)[C@@](C)(/C=N/NC(=O)CCCCCN7C(=O)C=CC7=O)C6CC[C@@]5(C)[C@]3(C)C[C@H]4O)C(OC3OC(C)C(OC4OCC(O)C(OC5OC(CO)C(O)C(O)C5O)C4O)C(O)C3O)C2O)C(O)C1OC1OCC(O)C(O)C1O (stereo partly shown) [SO1861-EMCH],factor of potency increase when cell viability of liver cells is considered,"[5]; primary hepatocytes, + 10 μM CD71-saporin",~10 factor
"TrivalentGalNAc-ApoBBNA: conjugate of trivalent GalNAc and the ApoB antisense BNA oligonucleotide ApoBBNA (SEQ ID NO: 2); L or S linker not stated (antisense GCCTCAGTCTGCTTCGCACC; sugars from the 5' end [BNANC]5 d10 [BNANC]5, all phosphorothioate, methylation of C not given here; trivalent GalNAc conjugated via linker, attachment via 5'-thiol C6 linker implied)",lowering of ApoB protein expression,"ApoB protein; + 300 nM TrivalentGalNAc-SPT001, FIG. 32B","Neither TrivalentGalNAc-ApoBBNA, nor the combination of TrivalentGalNAc-ApoBBNA and TrivalentGalNAc-SPT001 induce lowering of the ApoB protein expression"
same,lowering of ApoB protein expression,"ApoB protein; alone, FIG. 32B","Neither TrivalentGalNAc-ApoBBNA, nor the combination of TrivalentGalNAc-ApoBBNA and TrivalentGalNAc-SPT001 induce lowering of the ApoB protein expression"
same,lowering of ApoB mRNA expression,"ApoB [2]; + 300 nM TrivalentGalNAc-SPT001, FIG. 31B","Neither TrivalentGalNAc-ApoBBNA, nor the combination of TrivalentGalNAc-ApoBBNA and TrivalentGalNAc-SPT001 induce lowering of the ApoB mRNA expression"
same,lowering of ApoB mRNA expression,"ApoB [2]; alone, FIG. 31B","Neither TrivalentGalNAc-ApoBBNA, nor the combination of TrivalentGalNAc-ApoBBNA and TrivalentGalNAc-SPT001 induce lowering of the ApoB mRNA expression"
"trivalent-GalNAc-S-HSP27BNA: HSP27BNA (SEQ ID NO: 1) conjugated to trivalent-GalNAc, stable conjugation, FIG. 7 (GGCACAGCCAGTGGCG; sugars from the 5' end [BNANC]3 d10 [BNANC]3, all phosphorothioate, methylation of C not given here; further chemistry not fully specified)",IC50,HSP27 [3],3 nM
same,IC50,HSP27 [4],0.1 nM
